Experimental findings from patent US20250230171A1 (MOMA Therapeutics, Inc., priority 2023, published 2025) are described below.

For orientation: IC50 means the point on the concentration scale where inhibition reaches its midpoint.

Read-outs that look alike come from different tables or passages of the source.

Experiment [1] concerns the target biotinylated Avi-POLθ[2-894] (Homo sapiens (Human), UniProt O75417). The experiment can be described thus: POLθ ATPase assay (ADP-Glo). The conditions noted are these: n=2, read-out: Biochemical ATPase ADPGlo IC50. For orientation: ADP-Glo turns the ADP formed in a reaction into a luminescent signal.
In the next experiment the test system is DLD1 BRCA2 (−/−) cells. Kind of experiment: 7-day cell viability assay (CellTiter-Glo), DLD1 BRCA2 (−/−). The format is cell-based, human. The conditions noted are these: n=2, read-out: Viability IC50 (uM) DLD1 BRCA2 null. The method, boiled down: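 7-day growth assay in DLD1 cells with or without BRCA2; seeding densities chosen to keep log-linear growth. Compound: 10 uM top, 3-fold, 9 points. Endpoint: CTG ATP luminescence at RT.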
On the technique in general: ATP-based viability assays read luminescence as a measure of living cells.

A further experiment concerns DLD1 WT cells. The experiment can be described thus: 7-day cell viability assay (CellTiter-Glo), DLD1 parental (WT). The format is cell-based, human. As to conditions: n=2.
The mark [2] stands for this setting: Homo sapiens, DLD-1, 168 h, 7-day viability.
[3] abbreviates: Homo sapiens, DLD-1, 168 h, 7-day CellTiter-Glo.

Sequence of biotinylated Avi-POLθ[2-894] (O75417 2-894): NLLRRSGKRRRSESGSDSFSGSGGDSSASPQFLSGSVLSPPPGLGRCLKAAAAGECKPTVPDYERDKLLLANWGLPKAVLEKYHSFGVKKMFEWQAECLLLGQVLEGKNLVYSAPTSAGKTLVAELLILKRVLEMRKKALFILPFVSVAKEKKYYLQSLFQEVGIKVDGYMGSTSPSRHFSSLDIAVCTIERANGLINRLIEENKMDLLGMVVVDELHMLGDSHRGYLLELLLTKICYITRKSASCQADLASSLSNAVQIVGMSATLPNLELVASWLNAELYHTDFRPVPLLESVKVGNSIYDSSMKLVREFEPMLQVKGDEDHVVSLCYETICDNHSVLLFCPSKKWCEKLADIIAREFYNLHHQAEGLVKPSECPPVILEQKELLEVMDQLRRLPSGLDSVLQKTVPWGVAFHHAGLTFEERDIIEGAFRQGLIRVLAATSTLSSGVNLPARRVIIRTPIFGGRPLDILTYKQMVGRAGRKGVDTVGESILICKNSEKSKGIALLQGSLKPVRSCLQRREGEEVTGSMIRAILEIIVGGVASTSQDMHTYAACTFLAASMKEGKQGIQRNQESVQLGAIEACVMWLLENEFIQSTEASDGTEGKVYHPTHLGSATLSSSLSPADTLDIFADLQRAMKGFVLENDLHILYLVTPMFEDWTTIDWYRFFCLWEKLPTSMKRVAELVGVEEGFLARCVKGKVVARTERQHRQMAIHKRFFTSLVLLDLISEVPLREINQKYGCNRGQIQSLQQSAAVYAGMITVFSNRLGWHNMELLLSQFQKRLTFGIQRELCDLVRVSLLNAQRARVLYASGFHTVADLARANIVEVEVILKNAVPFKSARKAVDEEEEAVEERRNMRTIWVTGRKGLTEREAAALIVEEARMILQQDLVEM

Consider `COc1cnc(Cl)cc1-c1cc(C)ncc1C(=O)Nc1nc2c(s1)CN(C(=O)C1CCC(OC(F)F)C1)C2` (stereo not drawn), for which the concentration for half-maximal inhibition (IC50) in experiment [1] is 1 to 15 nM; with DLD1 BRCA2 (−/−) cells (setting [2]) it was 0.001 to 0.1 µM; in the experiment on DLD1 WT cells (setting [2]), at least 10 µM.

Turning to `COc1cn2cncc2cc1-c1cc(C)ncc1C(=O)Nc1nc2c(s1)CN(C(=O)c1c(Cl)cnn1C)C2`, the IC50 in experiment [1] is 1 to 15 nM; in the experiment with DLD1 BRCA2 (−/−) cells (setting [2]) it was 0.1 to 0.25 µM; with DLD1 WT cells (setting [2]), at least 10 µM.

Turning to `COc1cnc(Cl)cc1-c1cc(C)ncc1C(=O)Nc1nc2c(s1)CN(C(=O)c1ccccn1)C2`, the IC50 in experiment [1] was 1 to 15 nM; in the experiment on DLD1 BRCA2 (−/−) cells (setting [2]), 0.1 to 0.25 µM; in the experiment with DLD1 WT cells (setting [2]), at least 10 µM.

With `COc1cnc(Cl)cc1-c1cc(C)ncc1C(=O)Nc1nc2c(s1)CN(C(=O)c1ncc(Cl)cc1OC)C2`, the results for the IC50 (in experiment [1]; in the experiment on DLD1 BRCA2 (−/−) cells (setting [2]); in the experiment on DLD1 WT cells (setting [2])) were 1 to 15 nM, 0.001 to 0.1 µM and at least 10 µM, respectively.

Regarding `COc1cnc(Cl)cc1-c1cc(C)ncc1C(=O)Nc1nc2c(s1)CN(C(=O)c1ncc(C(F)F)cc1Cl)C2`, the figures for the IC50 (in experiment [1]; in the experiment on DLD1 BRCA2 (−/−) cells (setting [2]); in the experiment with DLD1 WT cells (setting [2])) were 1 to 15 nM, 0.1 to 0.25 µM and at least 10 µM, respectively.

For the compound `COc1cnc(Cl)cc1-c1cc(C)ncc1C(=O)Nc1nc2c(s1)CN(C(=O)c1cccc3ccnn13)C2`, the IC50 was 1 to 15 nM in experiment [1], 0.001 to 0.1 µM in the experiment on DLD1 BRCA2 (−/−) cells (setting [2]) and at least 10 µM in the experiment with DLD1 WT cells (setting [2]).

Consider `COc1cnc(Cl)cc1-c1cc(C)ncc1C(=O)Nc1nc2c(s1)CN(C(=O)c1c(Cl)cnn1C(C)C)C2`, for which the IC50 in experiment [1] was 1 to 15 nM; in the experiment with DLD1 BRCA2 (−/−) cells (setting [2]), 0.001 to 0.1 µM; with DLD1 WT cells (setting [2]), at least 10 µM.

For “2′-chloro-N-(5-(6- (difluoromethoxy)nicotinoyl)-5,6- dihydro-4H-pyrrolo[3,4-d]thiazol-2-yl)- 5′-methoxy-6-methyl-[4,4′-bipyridine]- 3-carboxamide [Example 32]”, the IC50 was in the range of 1 to 15 nM in experiment [1], 0.001 to 0.1 µM with DLD1 BRCA2 (−/−) cells (7-day viability) and 2 to 5 µM in the experiment on DLD1 WT cells (7-day viability).

In the case of “4-(5-Cyano-2-methoxyphenyl)-N-(5-(4-(difluoromethyl)-2-methoxybenzoyl)-5,6-dihydro-4H-pyrrolo[3,4-d]thiazol-2-yl)-6-methylnicotinamide [Example 481]”, the IC50 was 1 to 15 nM in experiment [1] (POLθ ATPase, ADP-Glo); 0.001 to 0.1 µM in the experiment with DLD1 BRCA2 (−/−) cells (7-day CellTiter-Glo); at least 10 µM in the experiment with DLD1 WT cells (7-day CellTiter-Glo).

For `COc1cnc(Cl)cc1-c1cc(C)ncc1C(=O)Nc1nc2c(s1)CN(C(=O)C1CC(C(F)F)C1)C2` (mixture of isomers) [Example 201], the IC50 is 1 to 15 nM in experiment [1], 0.1 to 0.25 µM in the experiment on DLD1 BRCA2 (−/−) cells (setting [2]) and at least 10 µM with DLD1 WT cells (setting [2]).

For `COc1cnc(Cl)cc1-c1cc(C)ncc1C(=O)Nc1nc2c(s1)CN(C(=O)c1c(C(F)F)cnn1C)C2` (racemic), the IC50 is 1 to 15 nM in experiment [1], 0.001 to 0.1 µM in the experiment on DLD1 BRCA2 (−/−) cells (setting [2]) and at least 10 µM in the experiment with DLD1 WT cells (setting [2]).

As for `COc1cnc(Cl)cc1-c1cc(C)ncc1C(=O)Nc1nc2c(s1)CN(C(=O)c1cnn(C(F)F)c1)C2` (racemic), the values for the IC50 (in experiment [1]; in the experiment with DLD1 BRCA2 (−/−) cells (setting [2]); in the experiment with DLD1 WT cells (setting [2])) were 1 to 15 nM, 0.001 to 0.1 µM and 0.001 to 0.5 µM, respectively.

As for `COc1ccccc1-c1cc(C)ncc1C(=O)Nc1nc2c(s1)CN(C(=O)C1CC(OC(F)F)C1)C2` (racemic), the figures for the IC50 (in experiment [1]; in the experiment with DLD1 BRCA2 (−/−) cells (setting [2]); with DLD1 WT cells (setting [2])) were 1 to 15 nM, 0.25 to 0.5 µM and at least 10 µM, respectively.

Regarding `COc1ccc(C#N)cc1-c1cc(C)ncc1C(=O)Nc1nc2c(s1)CN(C(=O)c1cccnc1OC)C2` (racemic) [Example 127], the IC50 in experiment [1] was 1 to 15 nM; with DLD1 BRCA2 (−/−) cells (setting [2]) it was 0.001 to 0.1 µM; in the experiment on DLD1 WT cells (setting [2]) it was at least 10 µM.

In the case of `COc1cnc(Cl)cc1-c1cc(C)ncc1C(=O)Nc1nc2c(s1)CN(C(=O)C1CCCC(OC)C1)C2` (racemic) [Example 128, (Racemic) 2′-chloro-5′-methoxy-N-(5-(3-methoxycyclohexane-1-carbonyl)-5,6-dihydro-4H-pyrrolo[3,4-d]thiazol-2-yl)-6-methyl-[4,4′-bipyridine]-3-carboxamide], the values for the IC50 (in experiment [1]; with DLD1 BRCA2 (−/−) cells (setting [2]); in the experiment on DLD1 WT cells (setting [2])) were 1 to 15 nM, 0.001 to 0.1 µM and at least 10 µM, respectively.

On to `COc1cnc(Cl)cc1-c1cc(C)ncc1C(=O)Nc1nc2c(s1)CN(C(=O)c1nn(C)cc1Cl)C2` (racemic) [Example 152, (Racemic)-4-(5-Cyano-2-methoxyphenyl)-6-methyl-N-(6-(phenylamino)-4,5,6,7-tetrahydrobenzo[d]thizaol-2-yl)nicotinamide], for which the results for the IC50 (in experiment [1]; in the experiment with DLD1 BRCA2 (−/−) cells (setting [2]); in the experiment with DLD1 WT cells (setting [2])) were 1 to 15 nM, 0.1 to 0.25 µM and at least 10 µM, respectively.

Consider `COc1ccc(C#N)cc1-c1cc(C)ncc1C(=O)Nc1nc2c(s1)CN(C(=O)C1CC(OC(C)C)C1)C2` (racemic) [Example 166], for which the values for the IC50 (in experiment [1]; with DLD1 BRCA2 (−/−) cells (setting [2]); in the experiment on DLD1 WT cells (setting [2])) were 1 to 15 nM, 0.25 to 0.5 µM and at least 10 µM, respectively.

With `COc1cnc(Cl)cc1-c1cc(C)ncc1C(=O)Nc1nc2c(s1)CN(C(=O)C1CCC(OC(F)(F)F)C1)C2` (racemic) [Example 397, (Racemic) 2′-chloro-5′-methoxy-6-methyl-N-(5-(3-(trifluoromethoxy)cyclopentane-1-carbonyl)-5,6-dihydro-4H-pyrrolo[3,4-d]thiazol-2-yl)-[4,4′-bipyridine]-3-carboxamide], the IC50 in experiment [1] (POLθ ATPase, ADP-Glo) is 1 to 15 nM; in the experiment on DLD1 BRCA2 (−/−) cells (setting [3]) it was 0.001 to 0.1 µM; with DLD1 WT cells (setting [3]) it was at least 10 µM.

For the compound `COc1cnc(Cl)cc1-c1cc(C)ncc1C(=O)Nc1nc2c(s1)CN(C(=O)c1ccc(C(F)(F)F)nc1OC)[C@H]2C` (single isomer, unassigned) [Example 1041, (S or R)-2′-chloro-5′-methoxy-N-(5-(2-methoxy-6-(trifluoromethyl)nicotinoyl)-4-methyl-5,6-dihydro-4H-pyrrolo[3,4-d]thiazol-2-yl)-6-methyl-[4,4′-bipyridine]-3-carboxamide], the IC50 in experiment [1] (POLθ ATPase, ADP-Glo) is 1 to 15 nM; in the experiment with DLD1 BRCA2 (−/−) cells (setting [3]) it was 0.001 to 0.1 µM; with DLD1 WT cells (setting [3]) it was at least 10 µM.

With `COc1cnc(Cl)cc1-c1cc(C)ncc1C(=O)Nc1nc2c(s1)C(C)N(C(=O)c1ccc(C(F)(F)F)nc1OC)C2` (single isomer, unassigned) [Example 1046, (R or S)-2′-chloro-5′-methoxy-N-(5-(2-methoxy-6-(trifluoromethyl)nicotinoyl)-6-methyl-5,6-dihydro-4H-pyrrolo[3,4-d]thiazol-2-yl)-6-methyl-[4,4′-bipyridine]-3-carboxamide], the 50% inhibitory concentration (IC50) is 1 to 15 nM in experiment [1] (POLθ ATPase, ADP-Glo); 0.001 to 0.1 µM with DLD1 BRCA2 (−/−) cells (setting [3]); at least 10 µM in the experiment with DLD1 WT cells (setting [3]).

`COc1cnc(Cl)cc1-c1cc(C)ncc1C(=O)Nc1nc2c(s1)CN(C(=O)C1CCC(OC(F)F)CC1)C2` (stereo not drawn) [Example 2, (Cis and Trans) 2′-chloro-N-(5-(4-(difluoromethoxy)cyclohexane-1-carbonyl)-5,6-dihydro-4H-pyrrolo[3,4-d]thiazol-2-yl)-5′-methoxy-6-methyl-[4,4′-bipyridine]-3-carboxamide]: the IC50 in experiment [1] is 1 to 15 nM; in the experiment on DLD1 BRCA2 (−/−) cells (setting [2]) it was 0.001 to 0.1 µM; in the experiment on DLD1 WT cells (setting [2]), at least 10 µM.

For the compound `COc1cnc(Cl)cc1-c1cc(C)ncc1C(=O)Nc1nc2c(s1)CN(C(=O)[C@@H]1C[C@H]1C(F)F)C2` [Example 3, 2′-chloro-N-(5-((1R,2R)-2-(difluoromethyl)cyclopropane-1-carbonyl)-5,6-dihydro-4H-pyrrolo[3,4-d]thiazol-2-yl)-5′-methoxy-6-methyl-[4,4′-bipyridine]-3-carboxamide], the figures for the IC50 (in experiment [1]; with DLD1 BRCA2 (−/−) cells (setting [2]); with DLD1 WT cells (setting [2])) were 1 to 15 nM, 0.001 to 0.1 µM and 2 to 5 µM, respectively.

Consider `COc1cnc(Cl)cc1-c1cc(C)ncc1C(=O)Nc1nc2c(s1)CN(C(=O)c1cnn3c1CCC3)C2` [Example 4, 2′-chloro-N-(5-(5,6-dihydro-4H-pyrrolo[1,2-b]pyrazole-3-carbonyl)-5,6-dihydro-4H-pyrrolo[3,4-d]thiazol-2-yl)-5′-methoxy-6-methyl-[4,4′-bipyridine]-3-carboxamide], for which the concentration for half-maximal inhibition (IC50) in experiment [1] lay within 1 to 15 nM; with DLD1 BRCA2 (−/−) cells (setting [2]), 0.001 to 0.1 µM; in the experiment on DLD1 WT cells (setting [2]), 0.001 to 0.5 µM.

Regarding `COc1cnc(Cl)cc1-c1cc(C)ncc1C(=O)Nc1nc2c(s1)CN(C(=O)c1c(C)nn(C)c1Cl)C2` [Example 5, 2′-chloro-N-(5-(5-chloro-1,3-dimethyl-1H-pyrazole-4-carbonyl)-5,6-dihydro-4H-pyrrolo[3,4-d]thiazol-2-yl)-5′-methoxy-6-methyl-[4,4′-bipyridine]-3-carboxamide], the figures for the half-inhibitory concentration (IC50) (in experiment [1]; with DLD1 BRCA2 (−/−) cells (setting [2]); in the experiment with DLD1 WT cells (setting [2])) were 1 to 15 nM, 0.001 to 0.1 µM and at least 10 µM, respectively.

In the case of `COc1cnc(Cl)cc1-c1cc(C)ncc1C(=O)Nc1nc2c(s1)CN(C(=O)c1c(C)nn(C)c1C(F)F)C2` [Example 6, 2′-chloro-N-(5-(5-(difluoromethyl)-1,3-dimethyl-1H-pyrazole-4-carbonyl)-5,6-dihydro-4H-pyrrolo[3,4-d]thiazol-2-yl)-5′-methoxy-6-methyl-[4,4′-bipyridine]-3-carboxamide], the IC50 was 1 to 15 nM in experiment [1], 0.001 to 0.1 µM in the experiment on DLD1 BRCA2 (−/−) cells (setting [2]) and at least 10 µM in the experiment with DLD1 WT cells (setting [2]).

Consider `COc1cnc(Cl)cc1-c1cc(C)ncc1C(=O)Nc1nc2c(s1)CN(C(=O)c1cccc(Cl)n1)C2` [Example 7, 2′-chloro-N-(5-(6-chloropicolinoyl)-5,6-dihydro-4H-pyrrolo[3,4-d]thiazol-2-yl)-5′-methoxy-6-methyl-[4,4′-bipyridine]-3-carboxamide], for which the IC50 lay in the range of 1 to 15 nM in experiment [1], 0.001 to 0.1 µM with DLD1 BRCA2 (−/−) cells (setting [2]) and 2 to 5 µM in the experiment on DLD1 WT cells (setting [2]).
